Assay results from ChEMBL document CHEMBL4304757, “Synthetic heterocyclic candidates as promising α-glucosidase inhibitors: An overview” (Eur J Med Chem, 2019).
Values belong to the compound of their own block, whether it stands above or below them.

Tests used:
[1] = Inhibition of yeast alpha-glucosidase using p-nitrophenyl-alpha-d-glucopyranoside as substrate preincubated with enzyme followed by substrate addition measured after 30 mins; design: species or system Saccharomyces cerevisiae
[2] = Inhibition of yeast alpha-glucosidase; design: species or system Saccharomyces cerevisiae
[3] = Inhibition of mouse alpha-glucosidase
[4] = Inhibition of yeast alpha-glucosidase using p-nitrophenyl-alpha-d-glucopyranoside as substrate preincubated with enzyme followed by substrate addition measured after 30 mins by spectrophotometric analysis; design: species or system Saccharomyces cerevisiae
Alpha glucosidase [5] = target: T1, Alpha glucosidase (Homo sapiens, UniProt O43451+P10253+P14410+Q2M2H8); test: Inhibition of alpha-glucosidase (unknown origin) using p-nitro phenyl glucopyranoside as substrate preincubated for 10 mins followed by substrate addition measured after 10 mins; format: protein assay
Alpha glucosidase [6] = target: T1, Alpha glucosidase; test: Inhibition of alpha-glucosidase (unknown origin) using p-nitrophenyl-alpha-d-glucopyranoside as substrate preincubated for 30 mins followed by substrate addition measured for 60 secs by spectrophotometric analysis; format: protein assay
Alpha glucosidase [7] = target: T1, Alpha glucosidase; test: Inhibition of alpha-glucosidase (unknown origin) using p-nitrophenyl-alpha-d-glucopyranoside as substrate preincubated for 10 mins followed by substrate addition measured after 20 mins; format: protein assay
Alpha glucosidase [8] = target: T1, Alpha glucosidase; test: Competitive inhibition of alpha-glucosidase (unknown origin) using p-nitrophenyl-alpha-d-glucopyranoside as substrate preincubated for 10 mins followed by substrate addition measured after 20 mins; format: protein assay
Alpha glucosidase [9] = target: T1, Alpha glucosidase; test: Potency index, ratio of acarbose IC50 to compound IC50 for inhibition of alpha-glucosidase (unknown origin) using p-nitrophenyl-alpha-d-glucopyranoside as substrate preincubated for 5 mins followed by substrate addition measured after 30 mins; format: protein assay
Alpha glucosidase [10] = target: T1, Alpha glucosidase; test: Inhibition of alpha-glucosidase (unknown origin) using p-nitrophenyl-alpha-d-glucopyranoside as substrate preincubated for 5 mins followed by substrate addition measured after 30 mins; format: protein assay
[11] = Inhibition of urease (unknown origin) assessed as reduction in ammonia production using urea as substrate after 15 mins by indophenol method
[12] = Inhibition of rat intestinal maltase-glucoamylase using p-nitrophenyl alpha-D-glucoside as substrate preincubated for 5 mins followed by substrate addition and measured after 30 mins
Alpha glucosidase [13] = target: T1, Alpha glucosidase; test: Inhibition of alpha-glucosidase (unknown origin) using p-nitro phenyl glucopyranoside as substrate preincubated for 5 mins followed by substrate addition measured after 30 mins; format: protein assay
Alpha amylase = target: T2, Alpha amylase (Homo sapiens, UniProt P0DUB6); test: Inhibition of alpha-amylase (unknown origin) using p-nitro phenyl glucopyranoside as substrate preincubated for 10 mins followed by substrate addition measured after 10 mins
T2 sequence (P0DUB6 whole entry): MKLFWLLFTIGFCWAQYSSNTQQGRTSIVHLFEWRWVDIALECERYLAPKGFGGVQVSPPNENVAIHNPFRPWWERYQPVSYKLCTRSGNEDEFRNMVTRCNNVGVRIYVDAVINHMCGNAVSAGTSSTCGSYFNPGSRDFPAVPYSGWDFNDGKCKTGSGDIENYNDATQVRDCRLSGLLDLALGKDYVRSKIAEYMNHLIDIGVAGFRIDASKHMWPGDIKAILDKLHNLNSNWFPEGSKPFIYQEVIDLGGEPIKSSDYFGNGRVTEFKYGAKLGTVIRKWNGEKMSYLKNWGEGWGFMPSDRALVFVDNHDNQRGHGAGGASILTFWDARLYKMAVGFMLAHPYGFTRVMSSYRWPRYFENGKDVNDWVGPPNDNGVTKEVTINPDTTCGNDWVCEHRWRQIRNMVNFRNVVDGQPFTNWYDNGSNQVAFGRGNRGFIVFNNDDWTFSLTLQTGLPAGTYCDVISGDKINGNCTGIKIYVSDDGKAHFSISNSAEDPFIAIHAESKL

Alpha glucosidase [14] = target: T1, Alpha glucosidase; test: Inhibition of alpha-glucosidase (unknown origin) using p-nitrophenyl-alpha-d-glucopyranoside as substrate preincubated for 30 mins followed by substrate addition measured after 60 mins; format: protein assay
Alpha glucosidase [15] = target: T1, Alpha glucosidase; test: Inhibition of alpha-glucosidase (unknown origin) using pNPG as substrate preincubated for 15 mins followed by substrate addition; format: protein assay
Alpha glucosidase [16] = target: T1, Alpha glucosidase; test: Non-competitive inhibition of alpha-glucosidase (unknown origin) using p-nitro phenyl glucopyranoside as substrate preincubated for 10 mins followed by substrate addition measured after 30 mins; format: protein assay
Alpha glucosidase [17] = target: T1, Alpha glucosidase; test: Inhibition of alpha-glucosidase (unknown origin) using p-nitro phenyl glucopyranoside as substrate preincubated for 10 mins followed by substrate addition measured after 30 mins; format: protein assay

IC50 [1]: 2.1 to 289 µM
Structure (SMILES): CC1=NN(c2ccc([N+](=O)[O-])cc2)C(=O)/C1=C/c1cn(-c2ccccc2)nc1-c1cc2ccccc2oc1=O

IC50 [1]: 2.1 to 289 µM
Structure (SMILES): O=C1/C(=C/c2cn(-c3ccccc3)nc2-c2cc3ccccc3oc2=O)C(c2ccccc2)=NN1c1ccccc1

IC50 [2]: 97 to 119 µM | IC50 [3]: 98 to 413 µM
Structure (SMILES): COc1ccc(/C=C/C(=O)C2=C(/C=C/c3ccc(OC)c(O)c3)Oc3[nH]c(=O)[nH]c(=O)c3C2c2cccc([N+](=O)[O-])c2)cc1O (configuration not stated)

IC50 [4]: 10 µM
Structure (SMILES): O=C(CCCSc1nc2ccccc2s1)Nc1cccc2ccccc12

IC50 (Alpha glucosidase [5]): 0.55 to 35 µM
Structure (SMILES): Cc1nccn1-c1ccc(/C=C2/SC(=O)NC2=O)cc1

IC50 [1]: 2.1 to 289 µM
Structure (SMILES): CC1=NN(c2ccc(C)cc2)C(=O)/C1=C/c1cn(-c2ccccc2)nc1-c1cc2ccccc2oc1=O

IC50 (Alpha glucosidase [6]): 22 µM
Structure (SMILES): Oc1ccc(Br)cc1-c1nc2cc(Cl)ccc2s1

IC50 (Alpha glucosidase [5]): 0.55 to 35 µM
Structure (SMILES): O=C(O)CN1C(=O)S/C(=C/c2ccc(-n3ccc4c(Br)ccnc43)cc2)C1=O

IC50 [2]: 97 to 119 µM | IC50 [3]: 98 to 413 µM
Structure (SMILES): COc1ccc(/C=C/C(=O)C2=C(/C=C/c3ccc(OC)c(O)c3)Oc3[nH]c(=O)[nH]c(=O)c3C2c2cc3ccccc3[nH]2)cc1O (configuration not stated)

IC50 [2]: 97 to 119 µM | IC50 [3]: 98 to 413 µM
Structure (SMILES): COc1ccc(/C=C/C(=O)C2=C(/C=C/c3ccc(OC)c(O)c3)Oc3[nH]c(=O)[nH]c(=O)c3C2c2ccc(Cl)cc2)cc1O (configuration not stated)

IC50 (Alpha glucosidase [5]): 0.55 to 35 µM
Structure (SMILES): O=C1NC(=O)/C(=C\c2ccc(-n3ccc4c(Nc5ccccc5OC(F)(F)F)ccnc43)cc2)S1

IC50 [1]: 2.1 to 289 µM
Structure (SMILES): O=C1/C(=C/c2cn(-c3ccccc3)nc2-c2cc3cc(Br)ccc3oc2=O)C(c2ccccc2)=NN1c1ccccc1

IC50 (Alpha glucosidase [7]): 20 µM | Ki (Alpha glucosidase [8]): 22 µM
Structure (SMILES): Cc1ccc(C(c2c(N)c3ccccc3oc2=O)c2c(N)c3ccccc3oc2=O)cc1

IC50 (Alpha glucosidase [5]): 0.55 to 35 µM
Structure (SMILES): O=C1NC(=O)/C(=C\c2ccc(-n3cc([N+](=O)[O-])cn3)cc2)S1

IC50 [1]: 2.1 to 289 µM
Structure (SMILES): CC1=NN(c2ccccc2)C(=O)/C1=C/c1cn(-c2ccccc2)nc1-c1cc2ccccc2oc1=O

IC50 [1]: 2.1 to 289 µM
Structure (SMILES): CC1=NN(c2ccc(C)cc2)C(=O)/C1=C/c1cn(-c2ccccc2)nc1-c1ccc(-c2ccccc2)cc1

Ratio IC50 (Alpha glucosidase [9]): 255 | IC50 (Alpha glucosidase [10]): 0.15 µM
Structure (SMILES): Cc1ccccc1C(=O)/N=c1\scc(C)n1-c1cc(Cl)c(Cl)cc1Cl

IC50 [1]: 2.1 to 289 µM
Structure (SMILES): CC1=NN(c2ccccc2)C(=O)/C1=C/c1cn(-c2ccccc2)nc1-c1ccc(-c2ccccc2)cc1

IC50 [1]: 2.1 µM
Structure (SMILES): CC1=NN(c2ccc([N+](=O)[O-])cc2)C(=O)/C1=C/c1cn(-c2ccccc2)nc1-c1cc2cc(Br)ccc2oc1=O

IC50 [1]: 2.1 to 289 µM
Structure (SMILES): CC1=NN(c2ccc([N+](=O)[O-])cc2)C(=O)/C1=C/c1cn(-c2ccccc2)nc1-c1ccc(-c2ccccc2)cc1

IC50 (Alpha glucosidase [5]): 0.55 to 35 µM
Structure (SMILES): O=C1NC(=O)/C(=C\c2ccc(-n3ccc4c(Br)ccnc43)cc2)S1

IC50 [11]: 8.3 µM
Structure (SMILES): Oc1ccc(-c2nc3ccc(Br)cc3[nH]2)cc1

IC50 [12]: 0.04 µM | IC50 (Alpha glucosidase [13]): 0.07 µM
Structure (SMILES): O=c1oc2ccccc2cc1-c1nn(C(Nc2ccc(Oc3ccc(NC(c4cccc(Br)c4)n4nc(-c5cc6ccccc6oc5=O)oc4=S)cc3)cc2)c2cccc(Br)c2)c(=S)o1 (configuration not stated)

Ratio IC50 (Alpha glucosidase [9]): 255 | IC50 (Alpha glucosidase [10]): 0.15 µM
Structure (SMILES): Cc1cs/c(=N\C(=O)c2cccc3ccccc23)n1-c1cc(Cl)c(Cl)cc1Cl

IC50 [2]: 97 to 119 µM | IC50 [3]: 98 to 413 µM
Structure (SMILES): COc1ccc(/C=C/C(=O)C2=C(/C=C/c3ccc(OC)c(O)c3)Oc3[nH]c(=O)[nH]c(=O)c3C2c2ccccc2)cc1O (configuration not stated)

IC50 (Alpha glucosidase [7]): 20 to 180 µM
Structure (SMILES): COc1cc(C(c2c(N)c3ccccc3oc2=O)c2c(N)c3ccccc3oc2=O)cc(Cl)c1O

IC50 (Alpha glucosidase [5]): 0.55 to 35 µM
Structure (SMILES): O=C1NC(=O)/C(=C\c2ccc(-n3cnc4ccccc43)cc2)S1

IC50 (Alpha glucosidase [5]): 0.55 to 35 µM
Structure (SMILES): O=C1NC(=O)/C(=C\c2ccc(-n3ccc4c(Nc5ccc(F)cc5)ccnc43)cc2)S1

IC50 [1]: 2.1 to 289 µM
Structure (SMILES): CC1=NN(c2ccc(C)cc2)C(=O)/C1=C/c1cn(-c2ccccc2)nc1-c1cc2cc(Br)ccc2oc1=O

IC50 (Alpha glucosidase [5]): 0.55 to 35 µM
Structure (SMILES): O=C1NC(=O)/C(=C\c2ccc(-n3ncc4ccccc43)cc2)S1

IC50 (Alpha amylase): 0.85 µM | IC50 (Alpha glucosidase [5]): 0.55 µM
Structure (SMILES): CCOC(=O)CN1C(=O)S/C(=C/c2ccc(-n3ccc4c(Br)ccnc43)cc2)C1=O

IC50 (Alpha glucosidase [14]): 9.6 µM
Structure (SMILES): Clc1ccc(/N=c2\scc(-c3ccc(Cl)cc3)n2Nc2ccccc2)cc1

IC50 (Alpha glucosidase [15]): 5.3 µM
Structure (SMILES): Cc1cccc2nc(-c3ccccc3Cl)[nH]c12

Ki (Alpha glucosidase [16]): 6.8 µM | IC50 (Alpha glucosidase [17]): 6.2 µM
Structure (SMILES): O=C(N/N=C/c1cc(Cl)cc(Cl)c1O)c1nc(-c2cc3ccccc3oc2=O)cs1

IC50 [1]: 2.1 to 289 µM
Structure (SMILES): CC1=NN(c2ccccc2)C(=O)/C1=C/c1cn(-c2ccccc2)nc1-c1cc2cc(Br)ccc2oc1=O

IC50 (Alpha glucosidase [6]): 6.2 µM
Structure (SMILES): C(=N\Nc1nc(-c2ccc(-c3ccccc3)cc2)cs1)/c1cccc2ccccc12

IC50 (Alpha glucosidase [7]): 20 to 180 µM
Structure (SMILES): Nc1c(C(c2ccc(O)cc2)c2c(N)c3ccccc3oc2=O)c(=O)oc2ccccc12
